Results on three molecules are retold here after patent US12649718B2, “Synthesis of n,n-dimethyltryptamine-type compounds, methods, and uses preliminary class 548” (CYBIN UK LTD, priority 2019, dated 2026).

A short description of series [1]: Solubility in water (vessel cleaning note). The note with it: Stage 3 vessel cleaning information. The class given is physicochemical.
For series [2] the following is noted: hashed area of FIG. 2; cited from earlier work.
Another series deals with humans. The note with it: 0.05 mg/kg to 0.4 mg/kg; bolus injections or prolonged infusions; only mild to moderate adverse effects; cited from earlier work.
The conditions of series [3]: cited from earlier work.
The test system of series [4] is individuals who have ingested 5-MeO-DMT. The note with it: cited from earlier work.
[5] abbreviates: self-report, uncontrolled setting, Davis et al. 2018.

For `CN(C)CCc1c[nH]c2ccccc12.O=C(O)/C=C/C(=O)O` [API, N,N-DMT fumarate], in series [1], the Solubility in water result is “API highly soluble”.
For `CN(C)CCc1c[nH]c2ccccc12` [DMT, N, N-dimethyltryptamine], the “Effect site concentrations experienced as full dissociation from the external world” value in series [2] is over 60 ng/mL. In the series with humans, the Tolerability result is “well-tolerated”.
For the molecule `COc1ccc2[nH]cc(CCN(C)C)c2c1` [Mixture 5-MeO-DMT, 5-methoxy-N, N-dimethyltryptamine], the Half-life in series [3] (rapidly metabolized, H-W. Shen et al. 2010) is 12 to 19 min. For the same molecule, the Oral bioavailability entry in series [3] (without coadministration alongside a monoamine oxidase inhibitor) was “not orally bioavailable”. Further, the “Individuals with alcoholism or hazardous drinking reporting improvements” value in series [4] (n=75 out of 113) is listed as 66%. In series [4] (setting [5]), the “Participants indicating symptoms improved: anxiety” value was 69%, the “Participants indicating symptoms improved: depression” value was 77% and the “Participants indicating symptoms improved: post-traumatic stress disorder” value is given as 79%.
